We go through 4 molecules from patent US10011572B2, “Monocyclic isoxazolines as inhibitors of cholesterol ester transfer protein” (Merck Sharp & Dohme Corp., priority 2014, dated 2018).

The structures appear in SMILES notation.

For data set [1] the following is noted: anacetrapib with baseline statin therapy compared with patients treated with just a statin; cited from earlier work.
For data set [2] the following is noted: Phase III outcomes trial, cited from earlier work.
The conditions of data set [3]: torcetrapib and atorvastatin concomitantly compared with atorvastatin alone; cited from earlier work.
Data set [4] deals with T1, endogenous CETP from serum (Homo sapiens, UniProt P11597).
T1 construct: yielding a concentration of approximately 15 nM endogenous CETP in the assay; from tissue; host or cells: human serum
T1 sequence (P11597 18-493): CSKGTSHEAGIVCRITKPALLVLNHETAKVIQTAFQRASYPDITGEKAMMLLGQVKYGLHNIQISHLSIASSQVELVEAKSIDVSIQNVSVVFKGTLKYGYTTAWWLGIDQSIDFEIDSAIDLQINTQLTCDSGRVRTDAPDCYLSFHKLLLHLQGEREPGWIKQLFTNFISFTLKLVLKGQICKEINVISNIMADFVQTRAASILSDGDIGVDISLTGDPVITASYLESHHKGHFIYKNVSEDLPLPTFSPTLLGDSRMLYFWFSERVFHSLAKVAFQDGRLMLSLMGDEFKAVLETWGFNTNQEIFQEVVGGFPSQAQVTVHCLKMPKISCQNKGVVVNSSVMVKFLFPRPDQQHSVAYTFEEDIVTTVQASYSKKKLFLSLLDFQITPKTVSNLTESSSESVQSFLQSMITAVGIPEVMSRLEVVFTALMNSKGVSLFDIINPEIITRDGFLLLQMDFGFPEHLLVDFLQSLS
Description: RTA assay in 95% human serum (in vitro radioactive assay of CETP-catalyzed CE and TG transfer, endogenous CETP). Type of data set: biochemical. The conditions noted are these: read-out: IC50 (nM) RTA with 95% HS. The method, then: In Vitro Radioactive Assays of CETP-Catalyzed CE and TG Transfer (RTA Assay)
Reagents and sources are: [3H] cholesteryl oleate (GE #TRK.886), [3H] Triolein (Perkin-Elmer NET-431), Butylated hydroxyl toluene (Aldrich, #D4740-4), DOPC (Sigma, # P6354), Sodium Bromide (Fisher scientific #S255-500), PEG 8000 (Fisher, #BP233-1), and human HDL (Intracel Corp #RP-036).
An in vitro assay for determining IC50's to identify compounds that inhibit CETP transfer activity is performed based on a modification of a published method (Morton and Zilversmit, (1981) A plasma inhibitor of triglyceride and cholesteryl ester transfer activities, J. Biol. Chem. 256(23), 11992-11995). The ability of inhibitors to alter CETP activity is performed using two different assays: one using recombinant CETP and one using an endogenous plasma source of CETP. Both assays measure the transfer of [3H] cholesteryl oleate or [3H] triolein from exogenous LDL to HDL.
Radiolabeled donor particles are generated by first combining 100 μl of 200 μM butylated hydroxyl toluene in CHCl3, 216 μL of 21.57 mM DOPC in EtOH, and either 500 μCi [3H]-triolein (Perkin Elmer #NET-431) or 500 μCi [3H]-cholesteryl oleate (GE #TRK886) in a glass tube. Reagents are mixed, dried under nitrogen, and then resuspended in 2 mL of 50 mM Tris, 27 μM EDTA at pH 7.4. After a brief vortex, the solution is sonicated until clear and mixed with 20 mL of fresh human serum. The mixture is incubated overnight at 37° C. The [3H] labeled LDL substrate is separated at 1.063 g/ml density by sequential ultracentrifugal flotation in NaBr according to the method of Havel, Eder, et al., 1955, and Chapman, Goldstein, et al., 1981. Once isolated the particles are dialyzed 3× in CETP buffer (50 mM Tris, pH 7.4, 100 mM NaCl, 1 mM EDTA). Human HDL is purchased from Intracel and used as the acceptor particles.
Transfer assays are performed in a 96-well v-bottom polypropylene plate. For the RTA using recombinant CETP (2% RTA), an assay cocktail is prepared with the final concentrations 128 μg/mL HDL, 20 nM rCETP, 2% human serum, and 1×CETP buffer. 1 μL of each test compound diluted in DMSO is added to 47 μL of assay cocktail per well and incubated at 37° C. for 1 hour. To initiate the transfer reaction, 2 μL radiolabeled LDL is added. After an additional 60 min of incubation at 37° C., the transfer action is terminated by precipitation of LDL with an equal volume of 20% WN PEG 8000. The plates are centrifuged at 2000 rpm for 30 minutes at 4° C. A 40 μL aliquot of the HDL-containing supernatant is transferred to a Packard Optiplate™ with 200 μL of MicroScint™ 20. After mixing, plates are counted by liquid scintillation. Counts present in the supernatant for blanks (wells containing only HDL acceptor, CETP buffer and DMSO) are subtracted from those containing test compounds and used to correct for non-specific transfer.
For the transfer assay using endogenous CETP from serum (95% RTA), the same procedure is used except that human serum is added such that a final concentration of serum of 95% of the total assay volume is achieved, yielding a concentration of approximately 15 nM endogenous CETP in the assay. This is then combined with HDL and CETP buffer and the reaction proceeds as above and is terminated as described.
Comparison of the counts of samples with inhibitors to an uninhibited (DMSO only) positive control yield a percent inhibition. A plot of percent inhibition vs. log of inhibitor concentration, fit to a Sigmoidal 4 parameter equation is used to calculate IC50.
Starting materials are commercially available or are made using known procedures or as shown below. The examples may be synthesized according to the general schemes provided below and by using the synthetic intermediates that are described. The data reported for the examples below were obtained using the RTA assay in 95% human serum.

With `COc1cc(F)c(C(C)C)cc1-c1ccc(C(F)(F)F)cc1CN1C(=O)O[C@H](c2cc(C(F)(F)F)cc(C(F)(F)F)c2)[C@@H]1C` [anacetrapib], in data set [1], the “decrease of LDL-C” value is 40% and the “increase of HDL-C” value was 138%. On to `CCC(CC)CC1(C(=O)Nc2ccccc2SC(=O)C(C)C)CCCCC1` [dalcetrapib], for which the “clinical benefit (interim data)” value in data set [2] (terminated early) is given as “did not show a clinical benefit”. Moreover, in data set [2], the safety issues entry is reported as “no safety issues detected”. On to `CCOC(=O)N1c2ccc(C(F)(F)F)cc2[C@@H](N(Cc2cc(C(F)(F)F)cc(C(F)(F)F)c2)C(=O)OC)C[C@H]1CC` [torcetrapib], for which, in data set [3], the mortality entry is given as “higher incidence of mortality”.

On to `COc1ccc(CCC(=O)O)cc1-c1ccc(C(F)(F)F)cc1CC1=NO[C@H](c2cc(C(F)(F)F)cc(C(F)(F)F)c2)C1` [Example 5, 3-[2′-({(5S)-5-[3,5-bis(trifluoromethyl)phenyl]-4,5-dihydroisoxazol-3-yl}methyl)-6-methoxy-4′-(trifluoromethyl)biphenyl-3-yl]propanoic acid], for which, in data set [4], the 50% inhibitory concentration (IC50) (as a rule, the concentration that inhibits the measured activity by half) amounted to 1500 nM.
